The test system of data set [1] is Ku70-Ku80 full length (KuFL, His-Ku80) (human). The data set is described as follows: switchSENSE. The conditions noted are these: Single-molecule: 20 mM Tris pH 7.5, 100 mM KCl, 2.5 mM MgCl2, 1 mg/mL BSA, 2 mM DTT, 0.8% glucose, 0.1% Trolox, 1% GLOX, 1 nM Ku, switchSENSE (15-240 nM Ku) ….
In data set [2] the test system is HEK-293T cells. The data set is described as follows: Dual dEJ/HR reporter assay. The data set is classed as cell-based, human. The conditions noted are these: versus control without inhibitors; for expression of the HR marker BFP / HR activity: NU7441 3 μM or B02 10 μM. The source says:
The dEJ-HR dual reporter substrate for both direct end-joining and homologous recombination was assembled into the pEGFP-N1 vector (Clontech) following sequential insertion of various PCR products, oligonucleotide linkers and synthetic DNA fragments (see Supplementary Information for a detailed description). The Cas9 and guide RNA co-expression plasmid used to cleave the reporter substrate was generated by inserting the pre-annealed gRNA-dEJ-HR-F and gRNA-dEJ-HR-R oligonucleotides into the BbsI restriction sites of pX330-U6-Chimeric_BB-CBh-hSpCas9 (a gift from Feng Zhang; Addgene plasmid # 42230; http://n2t.net/addgene:42230; RRID:Addgene_42230). The pmCherry-NLS plasmid (a gift from Martin Offterdinger; Addgene plasmid # 39319; http://n2t.net/addgene:39319; RRID:Addgene_39319) was used as an internal control of transfection efficiency in end-joining assays.
Cell lines and cultures are described in Figure 5 legend. HEK-293T cells were seeded in 6-well plates and transfected 24 h later with a mix of reporter substrate (500 ng), Cas9/gRNA expressing vector (300 ng) and pmCherry-NLS control plasmid (200 ng) using JetPEI (PolyPlus-Transfection, Illkirch-Graffenstaden, France). When indicated, cells were treated at the time of transfection with 3 μM DNA-PK inhibitor NU7441 (Tocris, Bristol, UK) or 10 μM Rad51 inhibitor B02 (Sigma-Aldrich St. Louis, MO). Cells were trypsinized 2 days post-transfection, washed with PBS and analysed by flow cytometry on a Fortessa X-20 cell analyzer (BD Biosciences). For each cell population, the integrated fluorescence signal (% positive cells × mean fluorescence) was calculated for each repair readout (i.e. GFP for direct end-joining and BFP for gene conversion) and normalized to that of transfection control (mCherry). Western blots, antibodies, oligonucleotides, plasmids and DNA manipulations, generation of U2OS shKu80 cells and generation of HEK-293T mAID-Ku70/mAID-Ku80 cells are described in Supplemental Information.

The target in data set [3] is T1, KuFL (full-length human Ku70–Ku80 heterodimer) (Homo sapiens, UniProt P12956+P13010).
T1 construct: The full-length human Ku heterodimer subunits (Ku70 1–609, Ku80 1–732); 10x His-tag with TEV site (N); made in house; host or cells: Sf21 insect cells (baculovirus, MultiBac)
T1 sequence (P12956 whole entry): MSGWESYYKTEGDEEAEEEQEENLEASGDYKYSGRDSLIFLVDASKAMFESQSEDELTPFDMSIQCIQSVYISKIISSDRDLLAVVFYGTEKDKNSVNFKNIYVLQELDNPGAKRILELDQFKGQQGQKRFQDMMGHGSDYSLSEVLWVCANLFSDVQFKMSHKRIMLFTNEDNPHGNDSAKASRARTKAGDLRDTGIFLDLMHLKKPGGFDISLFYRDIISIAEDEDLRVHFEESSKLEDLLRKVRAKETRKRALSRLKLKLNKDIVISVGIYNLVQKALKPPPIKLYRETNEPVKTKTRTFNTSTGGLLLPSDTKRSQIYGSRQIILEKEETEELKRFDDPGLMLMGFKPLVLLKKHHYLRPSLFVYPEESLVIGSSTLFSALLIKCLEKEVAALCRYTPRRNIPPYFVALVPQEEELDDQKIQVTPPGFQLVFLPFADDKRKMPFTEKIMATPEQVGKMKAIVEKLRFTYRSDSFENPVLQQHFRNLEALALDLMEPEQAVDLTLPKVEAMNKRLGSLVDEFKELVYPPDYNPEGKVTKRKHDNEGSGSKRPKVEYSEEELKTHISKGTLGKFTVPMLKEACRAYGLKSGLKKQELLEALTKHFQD
T1 sequence (P13010 whole entry): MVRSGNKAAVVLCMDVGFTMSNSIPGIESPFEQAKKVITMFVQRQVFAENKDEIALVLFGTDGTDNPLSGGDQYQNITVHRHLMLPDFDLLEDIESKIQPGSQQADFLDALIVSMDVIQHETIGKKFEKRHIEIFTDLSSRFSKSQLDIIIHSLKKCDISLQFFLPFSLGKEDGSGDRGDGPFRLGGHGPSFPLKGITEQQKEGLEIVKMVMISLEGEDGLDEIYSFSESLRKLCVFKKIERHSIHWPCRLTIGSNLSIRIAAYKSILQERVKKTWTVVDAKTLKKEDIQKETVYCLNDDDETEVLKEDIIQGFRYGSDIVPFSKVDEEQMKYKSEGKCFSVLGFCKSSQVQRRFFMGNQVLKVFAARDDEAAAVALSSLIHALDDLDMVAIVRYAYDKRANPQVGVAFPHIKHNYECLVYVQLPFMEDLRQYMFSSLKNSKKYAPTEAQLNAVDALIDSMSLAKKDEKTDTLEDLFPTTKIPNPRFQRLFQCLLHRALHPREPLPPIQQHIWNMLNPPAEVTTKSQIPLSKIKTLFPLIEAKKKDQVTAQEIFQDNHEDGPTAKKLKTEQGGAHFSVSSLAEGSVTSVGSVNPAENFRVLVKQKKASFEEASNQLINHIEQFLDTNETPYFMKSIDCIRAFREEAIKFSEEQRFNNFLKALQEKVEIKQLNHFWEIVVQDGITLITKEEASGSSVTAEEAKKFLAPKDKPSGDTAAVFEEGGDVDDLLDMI
Nature of the data set: Isothermal titration calorimetry (ITC), KuFL with IP6 and IP6 analogues. The class given is binding. The conditions noted are these: 25 °C, Ku 4 µM in cell, IPs 40 µM in syringe. Here is the method: Purification of Ku full-length (KuFL) for cryo-EM experiments was carried out as described previously ([5]). Expression and purification of KuFL for biophysical experiments was carried out as described previously ([20]). The full-length human Ku heterodimer subunits (Ku70 1–609, Ku80 1–732) were cloned into a Multibac vector ([21]). The construct has a 10× His-tag and a TEV site on the N-terminus of Ku80 and no-tag on Ku70. Protein production was initiated in Sf21 cells by infection with the baculovirus stock at MOI of 5 × 10^−3 and cells were collected 5–6 days after the infection (3–4 days after the proliferation arrest). Cells were sonicated and the supernatant was incubated with Benzonase (300 units for 30 min at 4°C). The Ku heterodimer was purified on a NiNTA-Agarose affinity column (Protino, Macherey Nagel) with a 1 M NaCl wash step to remove DNA excess. The eluted Ku was then bound onto an anion exchange column (Resource Q, Cytiva) equilibrated in 20 mM Tris pH 8.0, 50 mM NaCl, 50 mM KCl, 10 mM β-mercaptoethanol and eluted with a salt gradient. The final yield was about 20 mg of purified heterodimer per litre of culture. KuΔC constructs, heterodimer deleted of its C-terminal region (Ku70 1–544, Ku80 1–551) for X-ray crystallography, Ku mutants, Ku-2E (Ku with mutation in K357E on Ku70 and K481E on Ku80) and Ku-4E (Ku with mutations in H359E and H360E on Ku70 and K413E and H414E on Ku80) were cloned in the same vector and produced following the same protocol as KuFL expressed in Sf21 insect cells.
Calorimetry. Interactions between KuFL and inositol phosphates (IPs) (IP6 and IP6 analogues) were determined by Isothermal Titration Calorimetry (ITC) using a VP-ITC calorimeter (Malvern). Prior to measurements, all solutions were degassed under vacuum. The reaction cell of the ITC (volume 1.8 mL) was loaded with Ku heterodimers at 4 µM concentration. […] The free energy of binding (ΔG) and the entropy (ΔS) were determined using the classical thermodynamic formula, ΔG = - RT ln(Ka) and ΔG = ΔH - TΔS. […]
For orientation: Isothermal titration calorimetry measures the heat released or taken up as one component is titrated into another.

The target in data set [4] is full-length human Ku70–Ku80 heterodimer (KuFL), expressed in Sf21 insect cells (human) (UniProt P12956). The data set is described as follows: switchSENSE; fluorescent DNA hybridised on the gold surface of the chip, Ku bound to this DNA in saturating conditions, then XLF injected (1, 2 and 8 μM); absence of IP6; biphasic, two steps binding mode fit; apparent affinities.
full-length human Ku70–Ku80 heterodimer (KuFL), expressed in Sf21 insect cells (human), sequence (P12956 whole entry, chain 1 of 2): as the sequence (P12956 whole entry) above
full-length human Ku70–Ku80 heterodimer (KuFL), expressed in Sf21 insect cells (human), sequence (P13010 whole entry, chain 2 of 2, further chain): as the sequence (P13010 whole entry) above

The target is the same in data set [5]. Nature of the data set: switchSENSE; fluorescent DNA hybridised on the gold surface of the chip, Ku bound to this DNA in saturating conditions, then XLF injected (1, 2 and 8 μM); 20 μM IP6 during Ku association and XLF titration; biphasic, two steps binding mode fit; apparent affinities.
For data set [6], the system named is HEK-293T cells expressing Ku-wt. Nature of the data set: Cell fractionation and western blot of chromatin and soluble fractions. The class given is cell-based, human. The conditions noted are these: 1 h. Here is the method: Stock solution of Calicheamicin γ1 (Cali), gift from P.R. Hamann (Wyeth Research, Pearl River, NY, USA), was made at 40 μM in ethanol and stored at –20°C. For drug-exposure, exponentially growing cells in […] were either mock-treated or treated with Cali in fresh medium for 1 h at 37°C. Then cells were washed with phosphate-buffered saline and trypsinized. Pellets were fractionated as follows. Cells were first resuspended for 7 min on ice in 120 μL of extraction buffer 1 (50 mM HEPES pH 7.5, 150 mM NaCl, 1 mM EDTA) containing 0.1% Triton X-100 and supplemented with the Halt protease and phosphatase inhibitor cocktail (Thermo Fisher Scientific) with intermittent gentle vortexing. […] Protein content was measured with BCA reagent (Pierce) and equivalent protein amounts were denaturated in loading buffer at 1× final concentration (50 mM Tris–HCl pH 6.8, 10% glycerol, 1% SDS, 300 mM 2-mercaptoethanol, 0.01% bromophenol blue) at 95°C for 5 min, separated on SDS-PAGE gels (BioRad 4–15% TGX pre-cast gels) before overnight transfer onto Immobilon-P polyvinylidene difluoride (PVDF, Millipore) membranes. […]

Counter-ions that a name gives are not always drawn.

XLF, sequence (Q9H9Q4 whole entry): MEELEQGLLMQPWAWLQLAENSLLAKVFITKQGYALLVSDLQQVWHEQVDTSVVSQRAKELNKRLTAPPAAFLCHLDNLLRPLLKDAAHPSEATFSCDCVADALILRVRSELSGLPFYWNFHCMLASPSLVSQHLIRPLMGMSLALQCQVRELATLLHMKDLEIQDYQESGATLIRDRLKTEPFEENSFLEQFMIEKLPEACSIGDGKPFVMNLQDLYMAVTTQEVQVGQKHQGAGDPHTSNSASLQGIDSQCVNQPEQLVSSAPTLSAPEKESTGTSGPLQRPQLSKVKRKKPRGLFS

As to 48 bp dsDNA (switchSENSE), the Kd in data set [1] (3 uM IP6, kon 6.35e5 M-1 s-1, koff 1.27e-3 s-1) is 1.99 nM; in data set [1] (no IP6, kon 6.94e5 M-1 s-1, koff 2.26e-3 s-1), 3.25 nM. Turning to `O=c1c2ccccc2nc(/C=C/c2cccnc2)n1Cc1ccccc1` [B02], the “expression of the HR marker BFP / HR activity” value in data set [2] is reported as “decreased”. With `O=c1cc(N2CCOCC2)oc2c(-c3cccc4c3sc3ccccc34)cccc12` [NU7441], the “expression of the HR marker BFP / HR activity” value in data set [2] is given as “compensatory increase in HR”. For the same compound, the “expression of the direct EJ (dEJ) marker GFP” value in data set [2] (NU7441 3 μM) is listed as “decreased”. As to `O=P(O)(O)OC1C(OP(=O)(O)O)C(OP(=O)(O)O)C(OP(=O)(O)O)C(OP(=O)(O)O)C1OP(=O)(O)O` [D-chiro-IP6, D-chiro-inositol 1,2,3,4,5,6-hexakisphosphate sodium salt], binding in data set [3] was put at a Kd of 22 ± 6.8 nM.

On to “XLF (from UniProt Q9H9Q4 1-299) (natural protein)”, for which, in data set [4], the KD1 (first of two apparent affinities, biphasic fit; without IP6) turned out to be 3.6 µM and the KD2 (second of two apparent affinities, biphasic fit; without IP6) was 1.9 µM. Besides, in data set [5], the KD1 (first of two apparent affinities, biphasic fit; with 20 μM IP6) came out at 1.2 µM and the KD2 (second of two apparent affinities, biphasic fit; with 20 μM IP6) stood at 0.13 µM. Take Calicheamicin γ1: the “XLF, Lig4 and PAXX in the soluble proteins fraction” value in data set [6] (highest dose of calicheamicin) is “depleted from the soluble proteins fraction”. In addition, the “NHEJ proteins including XLF and PAXX in the chromatin fraction” value in data set [6] (increasing concentrations of calicheamicin) was “increasingly detected in the chromatin fraction”.

The compound `O=P(O)(O)O[C@H]1[C@H](OP(=O)(O)O)[C@@H](OP(=O)(O)O)[C@H](OP(=O)(O)O)[C@@H](OP(=O)(O)O)[C@H]1OP(=O)(O)O` [scyllo-IP6, scyllo-inositol hexakisphosphate sodium salt] had a Kd in data set [3] of 18 ± 2.5 nM.

For orientation: Kd means the concentration at which binding is half-saturated. Low readings indicate a tighter complex, high ones a looser complex.

The record behind these values is paper PMC10682503, “Structural and functional basis of inositol hexaphosphate stimulation of NHEJ through stabilization of Ku-XLF interaction” (Nucleic Acids Research, 2023).
